Test results as given in US8334316B2, “Substituted organosulfur compounds and methods of using thereof” (ACEA Biosciences, Inc., priority 2004, dated 2012).

Tests used:
mouse sarcoma S180 = assay: In vivo antitumor efficacy, mouse sarcoma S180 model (subcutaneously transplanted), Example 1; details: 30 mg/kg/d ip x7 qd
mouse Lewis lung cancer [1] = assay: In vivo antitumor efficacy, mouse Lewis lung cancer model, Example 2 (DBTS, CTX, Taxol reference); details: 30 mg/kg/d ip x7 qd
mouse Lewis lung cancer [2] = assay: In vivo antitumor efficacy, mouse Lewis lung cancer model (subcutaneously transplanted), Example 1
Procedure: Test controls. For the negative control, two groups were set up: the solvent only control group and normal saline control group. […] In the normal saline group, each mouse was administered with 0.5 ml of normal saline, once per day and for 7 or 10 consecutive days. For the positive control group, the anticancer compound, cyclophosphamide (CTX) was administered intraperitoneally at 30 mg/kg, once per day and for 7 or 10 consecutive days.
In the mouse Lewis lung cancer model, 200 mg of DBTS was dissolved in 5 mL castor oil (in polyoxyethlated version). […] The intravenous injection speed was about 0.5 mL/0.5 min.
The dosages and administration of test compounds are within the knowledge of those commonly skilled in pharmacology. For example, the test compounds may be administered by intravenous injection with a test compound solution twice per day and for 7 consecutive days. Alternatively, the test compounds may be administered by intravenous injection with a test compound solution once per day and for 10 consecutive days.
0.2 mL of the tumor cell suspension (between 4 and 8 million tumor cells) was then transplanted back into an experimental mouse by subcutaneous injection. […] Each removed solid tumor was weighted, and the tumor inhibition rate in the DBTS-treated groups and in the CTX-treated group was calculated according to the formula: Tumor inhibition rate %=(average weight of tumor in the negative control group−average weight of tumor in the compound treated group)/average weight of tumor in the negative control group×100 (2)
For the mouse Lewis lung cancer model, the Lewis lung cancer cells were subcutaneously transplanted at approximately 5 million cells per mouse. After 24 hours of the transplantation, each mouse in the test group was administered intravenously with dibenzyl trisulfide at 50, 25, or 12.5 mg/kg per day and for 10 consecutive days. For the positive control group, each mouse was administered with CTX at […] intraperitoneally per day and for 10 consecutive days. For the negative control group, each mouse was administered intravenously either with normal saline, or with the solvent for dibenzyl trisulfide at the same concentration as that in the test group per day and for consecutive 10 days. For each group, 10 mice were used.

[3] = test system: A549 human lung cancer cells; assay: Apoptosis: Annexin V-Cy3 / 6-CFDA staining of A549 cells; format: cell-based; details: 10 nM, 24 hrs
Procedure: The cells were incubated with the drugs for 24 hours and then washed 2× with PBS and 3× with binding buffer (10 mM HEPES, pH 7.5, 140 mM NaCl, 2.5 mM CaCl2). […] The cells were gently washed 3× in 1× binding buffer, mounted, viewed under immunofluorescent microscope and imaged using an attached CCD camera. Note that live cells show staining only with 6-CFDA (green), while necrotic cells will stain only with Annexin V-Cy3 (red). Cells starting the apoptotic process will stain both with AnnexinV-Cy3 and 6-CFDA.

[4] = test system: microtubules in COS cells; assay: Microtubule network in cultured COS cells (anti-tubulin immunofluorescence, confocal microscopy); format: cell-based
Procedure: Cell Culture and Immunocytochemistry. COS cells were grown in DMEM media supplemented with non-essential amino acids, 10% FBS, antibiotic-antimycotic (Gibco BRL) at 37° C. and 5.5% CO2. […] Cells were then rinsed once with warm PBS, fixed with cold methanol, rinsed again in PBS and blocked overnight at 4° C. in PBT (PBS, 1% BSA, 0.5% Triton X-100). All subsequent stains and washes were done in PBT at room temperature unless stated otherwise. Cells were stained with the anti-tubulin mouse antibody DM-1 at 1:1000 for 1 hour, washed four times for 15 minutes each and then treated with Cy-3 conjugated goat anti mouse antibody at 1:100 for 1 hour in the dark. Next, samples were washed four times for 15 minutes each in PBT in the dark followed by a final 15 minute wash in PBS in the dark. Samples were then viewed by laser scanning confocal microscopy.

HT1080 cells = assay: Inhibition of cancer cell proliferation, IC50 of ACEA100129 (RT-CES or MTT, not specified), HT1080; format: cell-based; details: Homo sapiens, HT-1080
Procedure: (§1) The anticancer potency of DBTS and its derivatives were tested in 8 different types of human cancer cell lines using the RT-CES system and MTT assay. The 8 cancer cell lines were HT1080 (the human fibrosarcoma cell line), H460 (human non small cell lung cancer cell line), OVCAR4 (the human ovarian cancer cell line), MCF7 (human breast cancer cell line) MDA-MB231 (M231, the human breast cancer cell line) A2780 (the human […] cancer cell line) Jurkat (the human T cell leukemia cell line). The test DBTS derivatives include ACEA100107, ACEA100108, ACEA100109, ACEA100111, ACEA100115, ACEA100116, ACEA100117, ACEA100118, ACEA100119, and ACEA100120.
(§2) For the assay performed on the RT-CES system, the cells were seeded into the 16× or 96× microtiter plate devices (electronic plates, i.e., the plates comprise microelectrode sensor arrays in the wells of the plate) at the seeding density ranging from 5000 cells/well to 15,000 cells/well. The cells were incubated at 5% CO2 and 37° C. for overnight till the cell indices reached the growth phase where the cell index was between 0.8 and 1.2. […] The time-dependent IC50 values for each derivative were calculated based the dose responses of cell index value at different time points after compound treatment. […]

HELA cells = assay: Inhibition of cancer cell proliferation, IC50 of ACEA100129 (RT-CES or MTT, not specified), HELA; format: cell-based; details: Homo sapiens
Procedure: as §1, §2

MCF7 cells = assay: Inhibition of cancer cell proliferation, IC50 of ACEA100129 (RT-CES or MTT, not specified), MCF7; format: cell-based; details: Homo sapiens
Procedure: as §1, §2

[5] = test system: A431 cells (human epidermoid cancer cells); assay: RT-CES system cell proliferation, A431; format: cell-based; details: FIG. 6B
Procedure: A431 cells (human epidermoid cancer cells) were seeded into wells of microtiter plate devices (electronic plates, i.e., the plates comprise microelectrode sensor arrays in the wells of the plate) with an initial seeding density of 10,000 cells per well and were pre-incubated in incubator under standard cell culture conditions for about 22.3 hrs. Various concentrations of DBTS and 5-fluorouracil solutions were added into wells following the incubation period. The cell status was monitored prior to and after the compound addition using RT-CES system.

[6] = test system: P388 lymphocytic leukemia; assay: Murine P388 lymphocytic leukemia model (intraperitoneal transplantation), life span; format: in vivo, mouse; details: 2 mg/kg/d iv x7 qd
Procedure: Both male and female mice were used.
Preparation and Administration of Test Compounds.
To prepare cancer cells for the P388 murine lymphocytic leukemia model, ascites of a P388 leukemia-bearing mouse were removed under sterile condition. The ascites were diluted in normal saline (1:6 for ascites to normal saline) to prepare cell suspension. 0.2 mL of the cell suspension was then injected intraperitoneally. […] The life span of carrier mice was determined within 30 days. The life span ratio comparing to the negative control group of the carrier mice in each compound treatment group was calculated according to the formula: Life span ratio %=average life span for the compound treatment group/average life span for the negative control group×100% (4)

## O=P1(N(CCCl)CCCl)NCCCO1 (centres unmarked) [CTX, cyclophosphamide, reference compound]
Mouse sarcoma S180
  Animal weight (g) beginning: 19.6 g
  Animal weight (g) end: 20.3 g
Mouse sarcoma S180; vs 10% solvent control
  Inhibition rate (%): 88.83%
Mouse sarcoma S180; vs normal saline control
  Inhibition rate (%): 91.76%
Mouse Lewis lung cancer [1]
  Animal weight (g) beginning: 21.1 g
  Animal weight (g) end: 22.3 g
  Tumor weight: 0.258 ± 0.09 g
Mouse Lewis lung cancer [1]; vs normal saline control
  tumor inhibition rate %: 90.75%
Mouse Lewis lung cancer [2]; 30 mg/kg/d ip
  Animal weight (g) beginning: 19.1 g
  Animal weight (g) end: 20.2 g
Mouse Lewis lung cancer [2]; 30 mg/kg/d ip x7 qd, vs 5% solvent control
  Inhibition rate (%): 85.83%
Mouse Lewis lung cancer [2]; 30 mg/kg/d ip x10 qd, vs normal saline control
  Inhibition rate (%): 87.62%

## CC[C@]1(O)C[C@@H]2CN(CCc3c([nH]c4ccccc34)[C@@](C(=O)OC)(c3cc4c(cc3OC)N(C)[C@H]3[C@@](O)(C(=O)OC)[C@H](OC(C)=O)[C@]5(CC)C=CCN6CC[C@]43[C@@H]65)C2)C1 [vinblastine, reference compound]
[3]
  Annexin V staining (apoptosis): strong staining of Annexin V
[4]; 4 hours exposure
  Microtubule network appearance: the microtubule network begins to fall apart and the microtubules become much shorter
[4]; 24 hours exposure, increasing dosage
  Microtubule network appearance: major cell abnormalities are widespread in the microtubule network

## Cc1ccc(CSSSCc2ccc(C)cc2)cc1 [ACEA100129, Di(p-methylbenzyl)trisulfide]
HT1080 cells
  IC50: 820 nM
HELA cells
  IC50: 420 nM
MCF7 cells
  IC50: 2300 nM

## O=c1[nH]cc(F)c(=O)[nH]1 [5-fluorouracil]
[5]
  Concentration showing inhibitory ability against proliferation: ≥ 12.5 µM

## CO[C@@]12[C@H](COC(N)=O)C3=C(C(=O)C(C)=C(N)C3=O)N1C[C@@H]1N[C@@H]12 [MMC, mitomycin C, reference compound]
[6]
  Beginning animal weight: 20.6 g
  animal No. beginning/end (survivors): 10/1
[6]; observed within 30 days
  Average life span X ± SD: 18.1 ± 0.15
[6]; vs solvent control
  Life span ratio %: 186.59%
